Data from patent US5177204A, “Derivatives of 4-(2,4-difluorbiphenylyl)-2-methyl-4-oxobutanoic acid” (Vyzkumng, USTAV pro farmacii a biochemii, Statni podnik, priority 1990, dated 1993).
Structures can show the parent of a compound that is named as a salt.

How the values were obtained:
[1] = tested on: male mice; experiment: Acute toxicity, mortality after a single dose (oral or intravenous); assay type: in vivo; settings: 500 mg/kg, 10080 min; for % mortality: Table I, single oral dose of 500 mg/kg, day 7 after application
Experimental: (§1) ^a Acute oral toxicity of each substance was evaluated after a single
(§2) dose of 500 mg/kg in male mice. The mortality in % is for day 7 after
(§3) ^a Acute toxicity was evaluated after a single dose of substance 1764
(§4) in male mice, namely orally as an aqueous solution, and intravenously in
(§5) physiological saline solution. Mortality was followed up in groups of 10
(§6) animals for 7 days upon oral application and for 3 days upon intravenous

[2] = Suppression of carragenine oedema (CE), anti-inflammatory effect; assay type: in vivo; settings: for CE inhibition %: Table I, oral suspension in 0.5% methylcellulose, dose equimolar to flobufen 20 mg/kg, 1 hour upon application; for CE suppression %: Table II
Experimental: (§7) ^b Antiinflammatory and analgesic activity was evaluated in compariso
(§8) with flobufen in equimolar doses, while flobufen was administered in a
(§9) dose of 20 mg/kg in the evaluation of antiinflammatory activity and in a
(§10) dose of 100 mg/kg in the evaluation of analgesic activity; the substances
(§11) were administered orally as a suspension in a 0.5% solution of
(§12) methylcellulose and the oedema was measured 1 hour upon application;
^c Suppression of the carraganine oedema was assessed according to
Winter J.: Proc. Soc. exptl. Biol. Med., 111, 544 (1962);
(§13) ^b for oral and intramuscular application an aqueous solution of
(§14) substance 17640 was used in said dose;
(§15) ^c the standard, i.e. 4(2,4-difluorobiphenylyl)-2-methyl-4-oxobutanic
(§16) acid was administered as a suspension in a 0.5% methylcellulose solution.

[3] = Freund adjuvant test, inhibition of adjuvant oedema (FA), anti-inflammatory effect; assay type: in vivo; settings: for FA inhibition %: Table I, oral suspension in 0.5% methylcellulose, dose equimolar to flobufen 20 mg/kg; for FA suppression %: Table II, oral
Experimental: as §7, §8, §9, §10, §11, §12
^d Antiinflammatory effect in the Freundadjuvant test was assessed
according to Horakova Z., Grimova J.: Cs. Fysiol. 17, 137 (1968);
as §13, §14, §15, §16

[4] = Analgesic activity, intraperitoneal irritation with 0.7% acid; assay type: in vivo, male mice; settings: for Pain inhibition %: Table I, oral suspension in 0.5% methylcellulose, dose equimolar to flobufen 100 mg/kg, male mice; for Pain suppression %: Table II
Experimental: as §7, §8, §9, §10, §11
^e Analgesic activity was evaluated in the test of intraperitoneal
irritation with 0.7% acid in male mice according to Witkin L. et al.: J.
as §13, §14, §15, §16

[5] = Acute toxicity, mortality after a single dose (oral or intravenous); assay type: in vivo; settings: mouse, male mice; for mortality at 168 h: in vivo, po, 500 mg/kg, Table I, single oral dose of 500 mg/kg, day 7 after application
Experimental: as §1, §2, §3, §4, §5, §6

| SMILES | % mortality [1] [%] | CE inhibition % [2] [%] | FA inhibition % [3] [%] | Pain inhibition % [4] [%] | mortality at 168 h [5] [%] | also measured |
| --- | --- | --- | --- | --- | --- | --- |
| CC(CC(=O)c1ccc(-c2ccc(F)cc2F)cc1)C(=O)O (stereo not drawn) [Flobufen, 4(2,4-difluorobiphenylyl)-2-methyl-4-oxobutanic acid, reference compound] | 50 | 46 | 65 | 79 |  | Acute toxicity, % mortality ([1]; Table II, oral, dose 500, aqueous solution (flobufen: suspension in 0.5% methylcellulose), 7 days): 50%; CE suppression % ([2]; oral, dose 20, suspension in 0.5% methylcellulose): 46%; FA suppression % ([3]; dose 20, suspension in 0.5% methylcellulose): 65%; Pain suppression % ([4]; oral, dose 100, suspension in 0.5% methylcellulose): 79% |
| CC(CC(=O)c1ccc(-c2ccc(F)cc2F)cc1)C(=O)O (stereo not drawn) [VUFB 17629, Cyclohexylammonium Salt of 4-/2,4-Difluorobiphenylyl/-2-methyl-4-oxobutan Acid] | 0 | 47 | 53 | 58 |  |  |
| CC(CC(=O)c1ccc(-c2ccc(F)cc2F)cc1)C(=O)O (stereo not drawn) [VUFB 17640] |  |  |  |  |  | mortality at 72 h ([5]; physiological saline, iv, 100 mg/kg, Table II, parenteral (intravenous), dose 100, physiological saline, 3 days): 0%; CE suppression % ([2]; oral, dose 30, aqueous solution): 46%; CE suppression % ([2]; parenteral (intramuscular), dose 1, aqueous solution): 21%; CE suppression % ([2]; parenteral (intramuscular), dose 10, aqueous solution): 40%; FA suppression % ([3]; dose 30, aqueous solution): 58%; Pain suppression % ([4]; oral, dose 150, aqueous solution): 77%; Pain suppression % ([4]; parenteral (intramuscular), dose 80, aqueous solution): 48% |
| CCOC(=O)C(C)CC(=O)c1ccc(-c2ccc(F)cc2F)cc1 (stereo not drawn) [VUFB 18391] |  | 49 | 55 | 38 | 0 |  |
| CCOC(=O)CNC(=O)C(C)CC(=O)c1ccc(-c2ccc(F)cc2F)cc1 (stereo not drawn) [VUFB 18392] |  | 40 | 51 | 41 | 0 |  |
| CCCCNC(=O)C(C)CC(=O)c1ccc(-c2ccc(F)cc2F)cc1 (stereo not drawn) [VUFB 18398, n-Butylamide of 4-/2,4-Difluorobiphenylyl/-2-methyl-4-oxobutan Acid] |  | 33 | 44 | 33 | 0 |  |
| CC(CC(=O)c1ccc(-c2ccc(F)cc2F)cc1)C(=O)O (stereo not drawn) [VUFB 18404] | 30 | 44 | 51 | 35 |  |  |
| CC(CC(=O)c1ccc(-c2ccc(F)cc2F)cc1)C(=O)O (stereo not drawn) [VUFB 18405, Potassium Salt of 4-/2,4-Difluorobiphenylyl/-2-methyl-4-oxobutan Acid] | 20 | 39 | 50 | 47 |  |  |
